Test results published in patent US6262095A, “Use of tricyclic derivatives of 1,4-dihydro-1,4-dioxo-1H-naphthalene, novel compounds obtained and their application in theraphy” (Laboratoire Innothera, priority 1995, dated 2001).

Assays:
[1] = test system: saphenous vein in rabbits; assay: Contractile effect on the rabbit saphenous vein precontracted by a depolarizing physiological solution (K+ 40 mM); assay type: cell-based; details: Oryctolagus cuniculus, precontracted with 40 mM potassium
Experimental: (§1) The contractile effects are measured in vitro under static conditions on vascular capacitance or resistance rings of saphenous, femoral, jugular, mesenteric, and caval veins . . . and on femoral, carotid, basilar, or mesenteric arteries, as well as the thoracic or abdominal aorta . . . in rats (Wistar, 200-250 g), rabbits (New Zealand, 2-2.5 kg), guinea pigs (Dunkin Hartley 250-300 g).
(§2) The rings are placed in a chamber for isolated organs (25 mL for capacitance vessels and 2.5 mL for resistance vessels according to Mulvany), and maintained under isometric conditions using two rigid threads inserted inside the vessel, avoiding causing damage to the endothelium. The vessels are bathed in a modified Krebs solution (in mM: NaCl=118; KCl=4.6; CaCl2 =2.5; MgSO4 =1.2; KH2 PO4 =1.17; NaHCO3 =25; glucose=11), continuously aerated using a gaseous mixture of 95% O2 and 5% Co2, at a pH=7.4, and regulated by thermostat at 37° C. The rings are adjusted to their optimal point as far as the tension-length relationship is concerned. The tensions developed generate an electrical signal through the intermediary of a force sensor (Wheatstone bridge). […] The pharmacological studies are carried out after a few standardized preliminary contractile stimulations using a depolarizing solution (hyperpotassic type obtained by replacing NaCl with KCl in equimolar quantities), along with rinsings and periods of equilibration in a pure physiological solution. The presence of endothelium is verified by the relaxation induced by increasing the concentration of acetylcholine after the stabilization of a vascular precontraction.
The forces of contraction developed by the vascular rings in response to the different compounds are studied on quiescent or electrically stimulated vessels (5-8 Hz), by a "physiological" depolarizing hyperpotassic solution (KCl: 20, 40 mM), by noradrenaline (increasing concentrations), [and by] serotonin (increasing concentrations).
The contractions are expressed in mg force or as a percentage of the maximum contraction at the time of the depolarization with a "physiological" hyperpotassic solution.
The contractile effect of different compounds on the saphenous vein in rabbits, precontracted by a depolarizing "physiological" solution with a potassium concentration of 40 mM, is given as an illustration; the maximum effect produced by each compound is expressed as a percentage of the maximum contraction induced by depolarizing hyperpotassic solutions and as value of ED50): […]

[2] = test system: capillary resistance of rats; assay: Capillary resistance of rats after oral administration (petechial index); assay type: in vivo, rat (Wistar); details: rat
Experimental: The increase in the capillary resistance is evaluated by the modification of the petechial index (negative pressure inducing the extravasation of the erythrocytes), measured by a method derived from the angiosterrometer of Parrot.
The studies are carried out on male Wistar rats with an average weight of 200 g (approximate age six weeks). The bottom area of the back is shorn, then the hair is pulled by means of a paste based on a derivative of thioglycolic acid and calcium hydroxide. After approximately 30 min, the skin is abundantly rinsed and dried.
On the day of the study, the rats are maintained without constraint. A low pressure of 80 mm of mercury is applied. If the petechiae (extravasation of erythrocytes) have not appeared within 15 sec, the low pressure is increased as a countermeasure, keeping the suction cap at the same place.
The minimum low pressure where petechias appear, in mm of mercury, expresses the basal capillary resistance (before any treatment). Two measurements are made for each test at different sites on of the back.
The rats are treated by the oral route. […] All the measurements are done in the blind mode.
A percentage of variation in the capillary resistances of the animals treated compared to their basal capillary resistance is calculated for each compound studied, at each treatment time and compared with the control group (excipient only) or the reference group.

[3] = test system: hyperpermeability induced by zymosan in rats; assay: Inflammatory hyperpermeability induced by zymosan in rats; assay type: in vivo, rat (Wistar); details: rat, oral, 5 mg/kg
Experimental: The vascular permeability is studied in vivo by measuring the extravasation of albumin, the quantity of which is determined using an albumin-binding dye (Evans blue).
The hyperpermeability is induced by the intradermal injection of a solution of histamine, bradykinin, or zymosan.
The abdominal walls of the rats (Wistar, 200-230 g) are shorn 1 h before the start of the experiment. The product to be tested is injected by the intraperitoneal route or orally 1-4 h before the sacrifice. The rats are anesthetized with a halothane mixture. They then receive an intradermal injection in their abdomen of 0.10 or 0.15 mL (or for histamine 6.7 or […]) of inflammatory agent and an intravenous injection of 1 mL of 0.5% Evans blue solution in the vein of the penis. These injections are carried out 30 min before the sacrificing.
30 min after these two injections, the rats are sacrificed by cervical dislocation.
At the site of the injection of the inflammatory agent, the skin is cut and placed into glass tubes with a ground[-glass] neck containing 3 mL of fuming hydrochloric acid. […] After allowing the preparation to stand for 30 min, 7 mL of dichloromethane are added. The tubes are periodically agitated for 1 h. The aqueous phase is eliminated by aspiration, and the organic "dichloromethane" phase is filtered. The optical densities are quantified by absorption spectrophotometry at a wavelength of 620 nm, against a blank [control] containing only dichloromethane. The averages of the optical densities of the different lots of treated or control animals are calculated, then a percentage of variation of the values corresponding to the treated [experimental] animals compared to those of the control animals is calculated.

jugular vein of the rat = assay: Contraction of rat jugular vein under depolarizing hyperpotassic conditions; assay type: cell-based; details: pH 7.4, read-out: ED50 (contraction)
Experimental: as §1
as §2, with “concerned.” for “concerned. The tensions developed generate an electrical signal through the intermediary of a force sensor (Wheatstone bridge).”, “The presence of endothelium is verified by the relaxation induced by increasing the concentration of acetylcholine after the stabilization of a vascular precontraction.” left out

[4] = test system: arterial pressure of the conscious rat; assay: Arterial pressure of the conscious rat; assay type: in vivo; details: oral 0.1-5-50 mg/kg
Experimental: In the conscious animal, the arterial pressures are measured according to the classical method derived from Riva Rocci, by the analysis of the acoustical wave transmitted at the arterial level and transformed by a ceramic piezo transducer placed on the tail of the rat, downstream from a sleeve that is automatically inflated by a pressure generator. At the microcirculatory level, the variations in the sections of the veinules and arterioles are studied in vivo in the model of the dorsal cutaneous chamber of conscious hamsters, after a video microscopic recording (microscope Leitz Ergolux equipped with a halogen source for the illumination and its black-and-white CD video camera HPR 610) and computer analysis (software Visicap, Pack ICAP) of the images.

O=C1c2ccccc2C(=O)c2sc(-c3ccco3)nc21 [Example n, 4,9-Dihydro-4,9-dioxo-2-(2-furyl)-naphtho[2,3-d]thiazole]
Emax ([1]; % of maximum contraction induced by hyperpotassic solutions): 24 ± 3% | EC50 ([1]; read-out: ED50 (the source's name)): 110 nM | correlation of duration of action with plasma concentrations [2]: correlates with its measured plasma concentrations | dose dependence of oral effect on capillary resistance [2]: dose dependent over a broad range of doses | duration of action on capillary resistance [2]: at least 6 h | Increase of capillary resistance, effects after 4 h ([2]; 0.1 mg/kg, 4 h, * granulometry: 0.5-0.6 mm): 45 % of the control | Increase of capillary resistance, effect after 6 h ([2]; 0.1 mg/kg, 6 h, * granulometry: 0.5-0.6 mm): 45 % of the control | Zymosan-induced hyperpermeability, effect after 2 h ([3]; 2 h): 0 % of the control | Zymosan-induced hyperpermeability, effect after 4 h ([3]; 4 h): -21 % of the control | EC50 (jugular vein of the rat): 50 nM | arterial pressure [4]: does not affect the arterial pressure
